Legend:
HFD-induced obese rats [1] = test: HOMA-IR and euglycemic-hyperinsulinemic clamps after subcutaneous OT infusion; assay type: in vivo, rat; conditions: s.c. 50 nmol/day, 14 days
Method: Global and tissue-specific glucose utilization rates were measured by performing euglycemic-hyperinsulinemic clamps associated with the labeled 2-deoxyglucose technique as previously described (Vettor et al., 1994, Diabetologia, 37, 1202-1208). HFD-induced obese rats were overnight fasted and intraperitoneally anesthetized with Nembutal (75 mg/kg sodium pentobarbital; Abbott Laboratories, Chicago, Ill.). Total glucose utilization was measured during euglycemic-hyperinsulinemic clamps, as previously described (Vettor et al., 1994, above). At the end of the clamp, the in vivo insulin-stimulated glucose utilization index of individual tissues was determined by injecting a single bolus of labeled 2-deoxy-D-[1-3H]glucose (30 μCi; Amersham Biosciences UK, Little Chalfont, UK), as previously described (Vettor et al., 1994, above). […]
The beneficial effects of OT administration were assessed in the same rat model of high-fat diet induced obesity as in Example 1. […]
Insulinemia and glycemia were measured after an overnight fast before the euglycemic hyperinsulinemic clamps) and were used to calculate the “homeostasis model assessment of insulin resistance” (HOMA-IR). HOMA-IR was calculated as follows: (fasting serum insulin in mU/l)×(fasting blood glucose in mM)/22.5.
The effect of peripheral OT administration on high fat diet-induced insulin resistance was determined as described in Example 1.

HFD-induced obese rats [2] = test: High-fat diet-induced obesity rat model, subcutaneous infusion: body weight gain, food intake, body composition; assay type: in vivo
Method: Another group of the above male Wistar rats were rendered obese as described above and were subcutaneously infused with saline or OT (NeoMPS®, Strasbourg, France) (50 nmol/day/rat) during 14 days.
The beneficial metabolic effects of OT administration were assayed in the same high-fat diet induced obesity model in rats as in Example 1 and in PPAR-alpha knockout mice (Lee et al., 1995, Mol. Cell. Biol., 15(6):3012-22). HFD-induced obese animals, saline or OT groups (see conditions under Example 1) were subcutaneously infused via minipumps (Alzet®, as above). OT was delivered at a dose of 50 nmol/day/rat during 14 days.
An EchoMRI-700 quantitative nuclear magnetic resonance (QMR) analyzer (Echo Medical Systems, Houston, Tex.) was used to measure total fat mass and lean body mass in rats at the beginning and the end of the treatment.
The beneficial metabolic effects of administration of an oxytocin derivative according to the invention (Carbetocin) were assessed in the same rat model of high-fat diet induced obesity as in Example 1. HFD-induced obese animals were subcutaneously infused via minipumps (Alzet®, as above) with saline or carbetocin (Bachem) (5 nmol/day/rat or 50 nmol/day/rat) during 14 days.
Body composition parameters were measured by quantitative nuclear magnetic resonance as described in Example 3 at the beginning and 10 days of treatment.

CC[C@H](C)[C@@H]1NC(=O)[C@H](Cc2ccc(O)cc2)NC(=O)[C@@H](N)CSSC[C@@H](C(=O)N2CCC[C@H]2C(=O)N[C@@H](CC(C)C)C(=O)NCC(N)=O)NC(=O)[C@H](CC(N)=O)NC(=O)[C@H](CCC(N)=O)NC1=O [OT, Cys-Tyr-Ile-Gln-Asn-Cys-Pro-Leu-Gly (SEQ ID NO: 1)]
glucose infusion rate (GIR) (HFD-induced obese rats [1]): significantly increased | HOMA-IR (HFD-induced obese rats [1]; compared to saline, not observed in pair-fed group): lower | food intake (HFD-induced obese rats [2]; s.c. 50 nmol/day, 14 days): decreased | body weight gain (HFD-induced obese rats [2]; s.c. 50 nmol/day, 14 days, not observed in pair-fed group): decreased | fat mass by weighing adipose tissue depots (HFD-induced obese rats [2]; s.c. OT 50 nmol/day): food intake-independent decrease

— patent publication US9101569B2, “Methods for the treatment of insulin resistance” (UNIVERSITE DE GENEVE, priority 2010, dated 2015)
